Values quoted from earlier work as cited in patent US8410082B2, “Fluorinated diaryl urea derivatives” (Concert Pharmaceuticals, Inc., priority 2009, dated 2013).

Details: main circulating metabolite of sorafenib in plasma

share of circulating analytes at steady-state: 9-16%
Structure (SMILES): [O-][n+]1ccccc1 [pyridine N-oxide]
